From the METLIN SMRT retention time set (Domingo-Almenara et al. 2019)

Assay: gradient 5% acetonitrile 3 min, to 50% in 2 min, to 85% in 15 min, held 3 min, 100 µL/min
Details: column: Zorbax Extend-C18 2.1 x 50 mm; eluents: water / acetonitrile, 0.1% formic acid
How it was run: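 A Zorbax Extend-C18 column (2.1 × 50 mm, 1.8 μm) run at 100 μL/min with water and acetonitrile, both containing 0.1% formic acid, separated mixtures of ~100 pure standards. The HPLC was coupled to a quadrupole time-of-flight mass spectrometer operated in positive and negative ionization mode, with dead and dwell volumes of 40 μL and 900 μL. Each retention time was taken from a computationally picked adduct peak that was then manually inspected.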

SMILES | RP-LC retention time [s]
COCc1cc(=O)n(CC(=O)Nc2ccc(C)cc2C)c(N)n1 | 584
O=C([C@@H]1C[C@H](F)CN1S(=O)(=O)c1cccc(F)c1)N1CCc2ccccc2C1 | 920
CC(C)(C)c1csc(-c2csc(S(=O)(=O)N3CCN(c4ccccn4)CC3)c2)n1 | 974
O=c1c2scc(-c3cccc(F)c3)c2ncn1Cc1cccnc1 | 699
CCCn1cc(S(=O)(=O)Nc2ccc(F)cc2Cl)c2cccnc21 | 989
CC(=O)N1CCc2cc(N3CC(C(=O)NC(C)c4ccccn4)CC3=O)ccc21 (stereo not given) | 904
Cc1csc(-c2cc(S(=O)(=O)NC(C)(C)C)cn2CC(=O)N2CCCC2)n1 | 1160
Nc1cc(C2CCN(C(=O)Nc3cccc(Cl)c3)CC2)no1 | 727
Clc1cccc(CSc2nnc(-c3ccc(Br)cc3)o2)c1 | 1260
CC1=C(c2cccc(Cl)c2)S(=O)(=O)N=C1N1CCCN(C(=O)c2ccco2)CC1 | 818
CC(C)n1c(=O)sc2cc(S(=O)(=O)N3CCC(C(=O)NCc4ccccn4)CC3)ccc21 | 660
CCC(C)NC(=O)c1cc(-c2cccs2)nc2onc(C)c12 (stereo not given) | 929
O=C(NC1CCN(c2nnc3ccc(Cl)cn23)CC1)c1ccsc1 | 602
CC(=O)Oc1ccccc1C(=O)N1CCCc2ccccc21 | 868
Cc1cc(C(=O)N2CCN(C(=O)C3CC3c3cccs3)CC2)c(C)o1 (stereo not given) | 767
Cc1ccc(CNC(=O)C2CCCN(c3ncc(-c4cccc(F)c4)cn3)C2)o1 (stereo not given) | 851
COc1cc(NS(=O)(=O)c2cc3n(c2)CCCN(C)C3=O)cc(OC)c1 | 672
COc1ccc(N2CCN(c3cc(SCC(=O)Nc4ccccc4OC)ncn3)CC2)cc1 | 1040
COc1ccc(-c2cc(C(=O)NCC(c3cccs3)N(C)C)no2)cc1 (stereo not given) | 675
COc1cc(OC)c(NC(=O)c2c(OC)cc(=O)n3c2CCCC3)cc1Cl | 884
Cc1cccc2nnc(N3CCCC(C(=O)N4CCN(c5ccccc5)CC4)C3)n12 (stereo not given) | 614
COC1CCC12CCN(C(=O)c1ccoc1)CC2 (stereo not given) | 723

SMILES | RP-LC retention time [s]
O=C(Nc1ccc(Cl)cc1)C1CCN(c2nccnc2Sc2ccccc2)CC1 | 1160
O=C(NCCN1CCOCC1)C1CCc2sc(C(=O)N3CCOCC3)cc2C1 (stereo not given) | 561
COc1ccc(NC(=O)N2CCC(n3cnc4cccnc43)CC2)cc1OC | 581
Cc1ccc(-n2nc(C)c3sc(N4CCCC(C(=O)Nc5ccccc5C)C4)nc32)cc1 (stereo not given) | 1220
CC(C)NC(=O)Cc1cccn1-c1cccc(Cl)c1 | 870
COc1ccc(-c2ccc(=O)n(CCCNC(=O)c3ccc(S(N)(=O)=O)cc3)n2)cc1 | 812
Cc1ccc(N2C(=O)c3cccnc3C2CC(=O)N2CCN(c3ccccn3)CC2)cc1 (stereo not given) | 579
CC(=O)NCCc1csc(C2CCN(C(=O)C3(c4ccccc4)CC3)CC2)n1 | 651
O=C(NCc1nc(-c2ccccc2)no1)c1csc(-n2cccc2)n1 | 894
CCN1CCN(c2c(S(=O)(=O)c3ccc(Cl)cc3)cnc3cc4c(cc23)OCCO4)CC1 | 660
O=C(Nc1ccc(F)c(Cl)c1)N1CCCC1c1nc(-c2ccc(F)cc2F)no1 (stereo not given) | 1070
O=C(Cn1cc(-c2ccccc2)c2ncnc(N3CCOCC3)c21)NCc1ccc(Cl)cc1 | 778
CCN1CCN(C(=O)CN2C(=O)COc3ccc(C(=O)N4CCCC4)cc32)CC1 | 571
O=C(Cn1c(=O)n(Cc2cccnc2)c(=O)c2ncccc21)c1ccc2c(c1)OCCO2 | 554
CC1CCN(S(=O)(=O)c2ccc(-c3nnc(C(=O)NCc4ccc(Cl)cc4)o3)cc2)CC1 | 1120
Cc1ccc(NC(=O)Cn2nc(N3CCC(C)CC3)c3ccccc3c2=O)c(C)c1 | 1160
O=C(Cn1cnc2nc3c(cc2c1=O)CCCC3)N1CCN(c2cccc(C(F)(F)F)c2)CC1 | 881
Cc1noc(-c2ccc(OC3CN(C(=O)NCc4ccc(F)cc4)C3)cc2)n1 | 831
O=C(CCn1nnc2cc(-c3noc(COc4ccc(Cl)cc4)n3)ccc21)N1CCOCC1 | 866
CCn1ncc(CN2CCC[C@H]2c2nc(-c3ccccc3)n[nH]2)c1C | 601
CCCNC(=O)C1CCN(c2ccc(SCC(=O)Nc3cc(C)ccc3C)nn2)CC1 | 656
COc1ccc(C2c3c(n(C)c4ccccc34)C(=O)N2CC(=O)NCc2ccco2)cc1 (stereo not given) | 924

SMILES | RP-LC retention time [s]
CCN(CC)CCNC(=O)c1cc(Br)c(N)cc1OC | 645
CCOC(=O)c1c(C)[nH]c(C(=O)N2CCCC(C(=O)NCc3ccccc3F)C2)c1C (stereo not given) | 790
O=C(C1=CN(c2cccc(F)c2)c2ccccc2S1(=O)=O)N1CCOCC1 | 730
O=C(Cn1nc2c3sc(N4CCCCC4)nc3ncn2c1=O)Nc1ccccc1 | 768
COc1cc(OC)c(NC(=O)N2CCCC2c2nncn2C2CCCC2)cc1Cl (stereo not given) | 668
O=C(NCCc1cccs1)c1cccc(N2CCNC(c3ccccc3)C2)n1 (stereo not given) | 656
Cc1ccc(-c2nccn3cc(C(=O)N4CCN(C5CCCCC5)CC4)nc23)cc1 | 682
CSc1ccc(NC(=O)CN2C(=O)C3CCCN3C(=O)c3cc(C)ccc32)cc1 (stereo not given) | 785
O=C(Cn1cccc(-c2nc(-c3ccc(Br)cc3)no2)c1=O)Nc1ccc2c(c1)OCO2 | 935
COc1cc(CN2CC[C@@H]3CN(S(C)(=O)=O)[C@@H]3C2)ccc1F | 598
O=C(C1COc2ccccc2O1)N1CCN(c2cc(-c3ccc(Cl)cc3)[nH]n2)CC1 (stereo not given) | 926
CCCCOc1ccc(-c2cc3c4nnc(CCC(=O)N5CCN(CC)CC5)n4ccn3n2)cc1 | 680
COc1cccc(CNC(=O)N2CCC(N3CCN(Cc4ccccc4)C(=O)C3=O)CC2)c1 | 698
Cc1ccc(S(=O)(=O)c2nc(S(C)(=O)=O)sc2NCc2ccccn2)cc1 | 763
CCN1CCCC1CNC(=O)CCc1nc(-c2ccc(N3CCCC3)cc2)no1 (stereo not given) | 685
CC1(C)NC(=O)N(CCC(=O)N2CCCn3nc(-c4ccc(F)cc4)cc3C2)C1=O | 683
CC1CCCN(c2ccn3c(=O)n(CC(=O)NCc4ccc(Cl)cc4)nc3n2)C1 (stereo not given) | 821
O=C(Cn1cnc2c(sc3nc(-c4ccccc4)ccc32)c1=O)NC1CCCC1 | 906
Cc1cc(OCC(=O)N[C@@H](Cc2ccccc2)C(=O)O)c2c3c(c(=O)oc2c1)CCC3 | 835
CCCNc1cc(N2CCC(CCC(=O)Nc3ccc(OC)c(OC)c3)CC2)ncn1 | 648
O=C(/C=C/c1cccnc1)/C=C/c1cccnc1 | 635
